This is an account of results in US6800637B2, “Antidepressant indolealkyl derivatives of heterocycle-fused benzodioxan methylamines” (Wyeth, priority 2002, dated 2004).

For assay [1], the target named is T1, human 5-HT1A receptors (Homo sapiens, UniProt P08908).
T1 construct: expressed in transfected cells; host or cells: CHO cells
T1 sequence (P08908 1-422): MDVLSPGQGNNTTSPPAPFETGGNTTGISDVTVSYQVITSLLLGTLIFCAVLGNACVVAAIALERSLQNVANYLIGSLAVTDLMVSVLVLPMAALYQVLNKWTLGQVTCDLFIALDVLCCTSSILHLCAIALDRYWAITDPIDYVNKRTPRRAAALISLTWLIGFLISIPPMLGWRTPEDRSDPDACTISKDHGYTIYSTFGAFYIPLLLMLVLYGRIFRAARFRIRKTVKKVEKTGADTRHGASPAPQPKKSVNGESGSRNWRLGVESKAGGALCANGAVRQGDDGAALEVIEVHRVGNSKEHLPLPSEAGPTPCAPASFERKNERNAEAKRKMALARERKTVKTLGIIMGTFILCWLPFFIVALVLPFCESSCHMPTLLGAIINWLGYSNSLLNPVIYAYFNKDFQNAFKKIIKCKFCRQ
The experiment in a line: Displacement of [3H] 8-OHDPAT from 5-HT1A receptor, CHO cells stably transfected with human 5-HT1A receptors. Conditions: CHO cells with human 5-HT1A receptors, read-out: 5-HT1A Receptor Affinity KI. Type of assay: binding. From the text: High affinity for the serotonin 5-HT1A receptor was established by testing the claimed compound's ability to displace [^3H] 8-OHDPAT (dipropylaminotetralin) from the 5-HT1A serotonin receptor following a modification of the procedure of Hall et al., J. Neurochem. 44, 1685 (1985) which utilizes CHO cells stably transfected with human 5-HT1A receptors.
A general note: Displacement assays read how much labelled ligand stays bound in the presence of the test substance.

In assay [2] the target is T2, cloned human 5HT1A receptors (Homo sapiens, UniProt P08908).
T2 construct: expressed in transfected cells
T2 sequence (P08908 1-422): T1 sequence (P08908 1-422)
Nature of the assay: 35S-GTPγS binding assay, membranes containing cloned human 5HT1A receptors. Type of assay: biochemical. The settings on record: for IC50: antagonist potency, reversal of the effects of the standard agonist 8-OHDPAT, read-out: 5-HT1A Function IC50; for Emax: maximum inhibitory effect, read-out: 5-HT1A Function (Imax). As for the experimental part: Antagonist activity at 5-HT1A receptors was established by using a ^35S-GTPγS binding assay similar to that used by Lazareno and Birdsall (Br. J. Pharmacol. 109: 1120, 1993), in which the test compound's ability to affect the binding of ^35S-GTPγS to membranes containing cloned human 5HT1A receptors was determined. Agonists produce an increase in binding whereas antagonists produce no increase but rather reverse the effects of the standard agonist 8-OHDPAT. The test compound's maximum inhibitory effect is represented as the Imax, while its potency is defined by the IC50.

The target in assay [3] is T3, serotonin transporter (Rattus norvegicus, UniProt P31652).
T3 construct: displace ^3H-paroxetine from male rat frontal cortical membranes; from tissue; host or cells: male rat frontal cortex membranes
T3 sequence (P31652 whole entry): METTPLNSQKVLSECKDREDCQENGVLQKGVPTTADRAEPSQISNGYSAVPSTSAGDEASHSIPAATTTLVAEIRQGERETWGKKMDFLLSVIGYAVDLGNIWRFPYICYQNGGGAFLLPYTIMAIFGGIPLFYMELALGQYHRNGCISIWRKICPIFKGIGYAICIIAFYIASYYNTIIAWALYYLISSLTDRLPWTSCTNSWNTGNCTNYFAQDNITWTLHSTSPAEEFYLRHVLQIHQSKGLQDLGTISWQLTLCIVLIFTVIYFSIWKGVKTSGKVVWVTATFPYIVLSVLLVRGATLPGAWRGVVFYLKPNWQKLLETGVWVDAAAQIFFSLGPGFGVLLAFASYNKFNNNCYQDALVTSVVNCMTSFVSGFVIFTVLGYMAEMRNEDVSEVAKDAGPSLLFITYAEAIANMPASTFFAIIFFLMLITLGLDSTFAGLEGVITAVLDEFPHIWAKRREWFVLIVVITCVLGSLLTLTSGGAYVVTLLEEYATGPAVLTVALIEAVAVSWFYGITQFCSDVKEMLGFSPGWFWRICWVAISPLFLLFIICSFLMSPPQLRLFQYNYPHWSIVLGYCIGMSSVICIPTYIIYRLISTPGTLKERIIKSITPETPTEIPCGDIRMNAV
Nature of the assay: Displacement of 3H-paroxetine from male rat frontal cortical membranes (serotonin transporter affinity). The settings on record: read-out: 5-HT Transporter Affinity KI. Type of assay: binding.

On to `COc1cccc2c(CCCNCC3COc4ccc5nc(C)ccc5c4O3)coc12` (stereo not drawn) [Example 19, N-[3-(7-Methoxy-1-benzofuran-3-yl)propyl]-N-(8-methyl-2,3-dihydro-[1,4]dioxino[2,3-f]quinolin-2-ylmethyl)amine], for which, in assay [1], the Ki (usually a measure of affinity in units of concentration, obtained from inhibition or displacement) stood at 0.2 nM. Also, in assay [2], the IC50 – broadly, the concentration at which inhibition is half-maximal – worked out at 50.1 nM and the Emax was determined as 95.4%. In addition, in assay [3], the Ki is 14.6 nM.

On to `Cc1ccc2c3c(ccc2n1)OC[C@H](CNCCCc1csc2ccccc12)O3` [Example 20], for which the Ki in assay [1] came out at 0.38 nM; in assay [3], 2.82 nM. In addition, the concentration for half-maximal inhibition (IC50) in assay [2] was determined as 188 nM. For the same compound, in assay [2], the Emax came to 100%.

For `Cc1ccc2c3c(ccc2n1)OCC(CNCCc1csc2ccccc12)O3` (stereo not drawn) [Example 21, N-[2-(1-Benzothien-3-yl)ethyl]-N-(8-methyl-2,3-dihydro-[1,4]dioxino[2,3-f]quinolin-2-ylmethyl)amine], the Ki in assay [1] was determined as 0.6 nM. Further, in assay [2], the IC50 amounted to 25.9 nM and the Emax worked out at 37.5%. For the same compound, the inhibition constant (Ki) in assay [3] came to 62 nM.

For the compound `Cc1ccc2c3c(ccc2n1)OC[C@H](CN(C)CCCc1csc2ccccc12)O3` [Example 22, N-[3-(1-Benzothien-3-yl)propyl]-N-methyl-N-(8-mthyl-2,3-dihydro-[1,4]dioxino[2,3-f]quinolin-2-ylmthyl)amin], the Ki in assay [1] is 7.12 nM. In assay [2], the 50% inhibitory concentration (IC50) stood at 878 nM and the Emax came to 85.5%. In addition, the Ki in assay [3] turned out to be 4.3 nM.

Turning to `Cc1nc2ccc3c(c2o1)O[C@@H](CNCCCc1c[nH]c2ccc(F)cc12)CO3` [Example 23, N-[3-(5-Fluoro-1H-indol-3-yl)propyl]-N-(2-methyl-7,8-dihydro-[1,4]dioxino[2,3-g][1,3]benzoxazol-8-ylmethyl)amine], in assay [1], the Ki is 0.7 nM. For the same compound, in assay [2], the IC50 amounted to 19.3 nM and the Emax worked out at 85.8%. For the same compound, the Ki in assay [3] is 1.85 nM.

For `Cc1nc2ccc3c(c2o1)OC(CN(C)CCCc1c[nH]c2ccc(F)cc12)CO3` (stereo not drawn) [Example 24, N-[3-(5-Fluoro-1H-indol-3-yl)propyl]-N-methyl-N-(2-methyl-7,8-dihydro[1,4]dioxino[2,3-g][1,3]benzoxazol-8-ylmethyl)amine], in assay [1], the inhibitory constant (Ki) amounted to 4.45 nM. In assay [2], the half-maximal inhibitory concentration (IC50) was found to be 157 nM and the Emax came out at 100%. In addition, in assay [3], the inhibition constant Ki came out at 1.4 nM.

As to `CCN(CCCc1c[nH]c2ccc(F)cc12)CC1COc2ccc3nc(C)ccc3c2O1` (stereo not drawn) [Example 25, N-Ethyl-N-[3-(5-Fluoro-1H-indol-3-yl)propyl]-N-(8-methyl-2,3-dihydro-[1,4]dioxino[2,3-f]quinolin-2-ylmethyl)amine], in assay [1], the Ki was found to be 5.47 nM. Further, in assay [2], the IC50 was determined as 43.5 nM and the Emax came to 94%. The Ki in assay [3] turned out to be 0.6 nM.

For the compound `Cc1ccc2c3c(ccc2n1)OCC(CNCCCc1cn(C)c2c(F)cc(F)cc12)O3` (stereo not drawn) [Example 26, N-[3-(5,7-Difluoro-1-methyl-1H-indol-3-yl)propyl]-N-(8-methyl-2,3-dihydro-[1,4]dioxino[2,3-f]quinolin-2-ylmethyl)amine], the Ki in assay [1] was determined as 3.26 nM; in assay [3] it was 5.9 nM. The IC50 in assay [2] amounted to 180 nM. Moreover, in assay [2], the Emax amounted to 90.2%.

Turning to `Cc1ccc2c3c(ccc2n1)OCC(CN(C)CCCc1cn(C)c2c(F)cc(F)cc12)O3` (stereo not drawn) [Example 27, N-[3-(5,7-Difluoro-1-methyl-1H-indol-3-yl)propyl]-N-methyl-N-(8-methyl-2,3-dihydro-[1,4]dioxino[2,3-f]quinolin-2-ylmethyl)amine], the Ki in assay [1] was 52.9 nM. In assay [2], the IC50 was 341 nM and the Emax stood at 100%. Also, the Ki in assay [3] turned out to be 6.7 nM.

As to `Cc1ccc2c3c(ccc2n1)OCC(CNCCCc1c[nH]c2ccc(C#N)cc12)O3` (stereo not drawn) [Example 29, 3-{3-[(8-Methyl-2,3-dihydro-[1,4]dioxino[2,3-f]quinolin-2-ylmethyl)-amino]-propyl}-1H-indole-5-carbonitrile], the Ki in assay [1] is 1.64 nM. For the same compound, in assay [2], the IC50 came out at 55.8 nM and the Emax came out at 94%. The Ki in assay [3] worked out at 0.9 nM.

For the compound `Cc1nc2ccc3c(c2o1)O[C@@H](CNCCCc1c[nH]c2ccc(C#N)cc12)CO3` [Example 30, 3-{3-[(2-Methyl-7,8-dihydro-[1,4]dioxino[2,3-g][1,3]benzoxazol-8-ylmethyl)amino]-propyl}-1H-indole-5-carbanitrile], the Ki in assay [1] turned out to be 5.35 nM. Further, in assay [2], the half-maximal inhibitory concentration (IC50) came to 68 nM and the Emax amounted to 73.1%. Besides, the inhibition constant Ki in assay [3] stood at 1.8 nM.

In the case of `Cc1nc2ccc3c(c2o1)O[C@@H](CN(C)CCCc1c[nH]c2ccc(C#N)cc12)CO3` [Example 31, 3-{3-[M thyl-(2-methyl-7,8-dihydro-[1,4]dioxino[2,3[-g][1,3]benzoxazol-8-ylmethyl)-amino]-propyl)}-1H-indole-5-carbonitrile], in assay [1], the inhibition constant Ki came out at 35.3 nM. Moreover, in assay [2], the half-maximal inhibitory concentration (IC50) was 205 nM and the Emax was determined as 97.7%. The Ki in assay [3] turned out to be 2.4 nM.

Regarding `Cc1ccc2c3c(ccc2n1)OC[C@H](CN(C)CCCc1c[nH]c2ccc(C#N)cc12)O3` [Example 32], the Ki in assay [1] amounted to 5.46 nM. For the same compound, in assay [2], the half-maximal inhibitory concentration (IC50) turned out to be 233 nM and the Emax is 100%. Also, the inhibitory constant (Ki) in assay [3] came out at 1 nM.

For `Cc1ccc2c3c(ccc2n1)OCC(CNCCCn1ccc2ccc(F)cc21)O3` (stereo not drawn) [Example 33, [3-(6-Fluoro-indol-1-yl)-propyl]-(8-methyl-2,3-dihydro-[1,4]dioxino[2,3-f]quinolin-2-ylmethyl)amine], the Ki in assay [1] was determined as 21.2 nM. Besides, in assay [2], the IC50 turned out to be 200 nM and the Emax amounted to 73.5%. In assay [3], the Ki was 2.2 nM.

Take `Cc1ccc2c3c(ccc2n1)OCC(CN(C)CCCn1ccc2ccc(F)cc21)O3` (stereo not drawn) [Example 34, [3-(6-Fluoro-indol-1-yl)-propyl]-methyl-(8-methyl-2,3-dihydro-[1,4]dioxino[2,3-f]quinolin-2-ylmethyl)-amine]: the Ki in assay [1] came out at 0.29 nM. In assay [2], the IC50 was found to be 193 nM and the Emax turned out to be 100%. The Ki in assay [3] was 8.1 nM.

`Cc1ccc2c3c(ccc2n1)OCC(CNCCCCc1cn(C)c2ccc(F)cc12)O3` (stereo not drawn) [Example 35, [4-(5-Fluoro-1-methyl-1H-indol-3-yl)-butyl]-(8-methyl-2,3-dihydro-[1,4]dioxino[2,3-f]quinolin-2-ylmethyl)-amine]: the inhibition constant (Ki) in assay [1] worked out at 0.56 nM. Moreover, in assay [2], the IC50 came to 66.6 nM and the Emax came to 78.9%. In assay [3], the Ki amounted to 2.4 nM.

`CCN(CCCc1c[nH]c2ccc(F)cc12)C[C@H]1COc2ccc3nc(C)oc3c2O1` [Example 36, Ethyl-[3-(5-fluoro-1H-indol-3-yl)-propyl]-(2-methyl-7,8-dihydro-[1,4]dioxino[2,3-g][1,3]benzoxazol-8-ylmethyl)-amine]: the inhibition constant Ki is 16.3 nM in assay [1] and 1.9 nM in assay [3]. Also, the IC50 in assay [2] came out at 486 nM. For the same compound, the Emax in assay [2] was 91.9%.

Consider `Cc1ccc2c3c(ccc2n1)OC[C@H](CNCCCc1cn(C)c2ccc(C#N)cc12)O3` [Example 37, 1-Methyl-3-{3-[(8-methyl-2,3-dihydro-[1,4]dioxino[2,3-f]quinolin-2-ylmethyl)-amino]-proyl}-1H-indole-5-carbonitrile], for which, in assay [1], the Ki was 1.12 nM. Also, in assay [2], the half-maximal inhibitory concentration (IC50) was 21.4 nM and the Emax was determined as 100%. The inhibition constant Ki in assay [3] was 2.6 nM.

Turning to `Cc1ccc2c3c(ccc2n1)OCC(CNCCCCn1ccc2ccc(F)cc21)O3` (stereo not drawn) [Example 38, [4-(6-Fluoro-indol-1-yl)-butyl]-(8-methyl-2,3-dihydro-[1,4]dioxino[2,3-f]quinolin-2-ylmethyl)-amine], the Ki in assay [1] worked out at 0.06 nM. Besides, in assay [2], the IC50 was 25.8 nM and the Emax was determined as 85.5%. Further, the Ki in assay [3] was 1.31 nM.

Regarding `Cc1ccc2c3c(ccc2n1)OC[C@H](CNCCCCc1c[nH]c2ccc(C#N)cc12)O3` [Example 39, 3-{4-[(8-Methyl-2,3-dihydro-[1,4]dioxino[2,3-f]quinolin-2-ylmthyl)-amino]-butyl}-1H-indole-5-carbonitrile], the inhibitory constant (Ki) in assay [1] was found to be 0.85 nM; in assay [3], 0.5 nM. Also, the IC50 in assay [2] came out at 263 nM. In addition, the Emax in assay [2] was 78.5%.

For the compound `Cc1ccc2c3c(ccc2n1)OCC(CN(C)CCCc1cn(C)c2ccc(C#N)cc12)O3` (stereo not drawn) [Example 40, 1-Methyl-3-{3-[methyl-(8-methyl-2,3-dihydro-[1,4]dioxino[2,3-f]quinolin-2-ylmethyl)-amino]-propyl}-1H-indole-5-carbonitrile], the Ki in assay [1] turned out to be 17.7 nM. For the same compound, in assay [2], the 50% inhibitory concentration (IC50) is 1980 nM and the Emax was 100%. The Ki in assay [3] was found to be 7 nM.
